Test results: patent US5912259A, “Method for treating and preventing neurodegenerative disorders by administering a thiazolidinone” (Warner-Lambert Company, priority 1998, dated 1999)

How the values were obtained:
ICAM-1 = test: Cell-surface expression of ICAM-1; format: cell-based
[1] = tested on: nitric oxide synthase, mixed cortical cultures; test: Nitric oxide synthase activity / NO production in mixed cortical cultures; format: cell-based, fetal Sprague-Dawley rat
Experimental: (§1) BV-2 microglia were grown in 6-well tissue culture plates in DMEM/F12 media supplemented with 10% fetal calf serum. Prior to activation, cells were given fresh media containing various amounts of thiazolidinone. One hour after drug treatment, microglia were activated with lipopolysaccharide (LPS, 4 μg/mL) and placed in an incubator at 37° C. in an atmosphere containing 5% CO2. After 16 hours, cultures were evaluated for inducible nitric oxide synthase (iNOS) activity and expression. iNOS activity was determined using the Griess reaction. Cell-free culture media was mixed with an equal volume of Griess reagent (one volume of 1.0% sulfanilamide in 5% phosphoric acid mixed with one volume of 0.1% naphthylenediamine dihydrochloride in water) and incubated for 5 minutes at room temperature. Absorbance was measured at 560 nm and the concentration within a sample was determined using sodium nitrite as standard. iNOS expression was evaluated by extracting cellular protein and performing Western blot analysis using a monoclonal antibody specific for iNOS.
Experiments using mixed cortical cultures were performed as described above. […]
Cerebral ischemia can be modeled in vitro by lowering oxygen and glucose in the media of cortical neurons. […] Cultures were read every 2 to 3 days thereafter by half volume (100 μL) replacement with DME/F12 (10% horse serum).

iNOS, BV-2 microglia = test: iNOS expression in LPS-activated BV-2 microglia (Western blot); format: cell-based
Experimental: as §1

[2] = tested on: experimental autoimmune encephalomyelitis (EAE); test: Experimental autoimmune encephalomyelitis (EAE) in mice, Experiment 2; format: in vivo, mouse, PL/J(F1)×SJL/J; conditions: sensitized
Experimental: The thiazolidinone was evaluated in a mouse model of experimental autoimmune encephalomyelitis (EAE). The compound was administered orally to mice sensitized with a fragment of mouse myelin basic protein to induce EAE. Two experiments were conducted using the same protocol and neurological evaluations. Test animals were dosed for 21 days, beginning 4 hours before sensitization on Day 1. The effects of the thiazolidinone were compared to a control group of mice sensitized identically and dosed with vehicle alone. Neurological evaluations continued after cessation of drug treatment. The values reported in Tables 1 and 2 below include responses during drug treatment only.
The thiazolidinone was homogenized manually with an aliquot of warm vehicle (0.5% hydroxypropyl methylcellulose with 0.2% Tween 80in water) in glass mortar tubes and homogenizing pestle. The smooth drug paste was gradually suspended in vehicle. Mice were dosed with drug and/or vehicle, […] in groups of ten (Experiment 1) or twenty (Experiment 2). Mice were dosed from Experiment Day 1 to Day 21. A sham-sensitized group was similarly dosed with vehicle or thiazolidinone 30 mg/kg (Experiment 1).
Female mice, strain PL/J(F1)×SJL/J from Jackson Labs, were sensitized s.c. (0.05 cc×2) at the base of the tail with an emulsion containing equal parts of mouse myelin basic protein (MBP) fragment (amino acids 1-9 of the N-terminus of MBP) in saline and Difco Complete Freund's Adjuvant (CFA) fortified with heat killed desiccated Mycobacteria tuberculosis (MT). Each mouse received 300 μg of the MBP fragment (230 μg free base) and 200 μg MT followed by retrobulbar (i.v.) injection of 200 ng of B. pertussis toxin in 0.2 cc of saline. Forty-eight hours later, mice received a second injection of B. pertussis toxin. Mice in Experiment 1 were 8 to 9 weeks old; mice in Experiment 2 were 11 weeks old.
Animals were weighed and evaluated for symptoms of EAE before sensitization and frequently for 21 days. EAE score: (0.5=slight limp tail, 1=limp tail or slow to right, 1.5=slight limp tail and slow to right, 2=paresis/mild paralysis or incontinence, 2.5=mild paralysis and slow to right or complete paralysis (one hind limb), 3=hind limb paralysis (both), 3.5=hind limb paralysis (both) and limp torso; 4=additional fore limb paralysis, 4.5=head movement only, 5=moribund, death after previous EAE symptoms). Evaluators were blinded as to drug treatments and previous behavioral scores.
Disease symptoms were compared among groups for EAE severity, incidence, time to onset, cumulative score, deaths, and weight loss. Peak EAE score: the mean of highest score of each mouse in a group, independent of duration of symptoms; EAE incidence: the mean number of mice showing symptoms of EAE, defined as having EAE scores on any three consecutive days that total≥3.0. EAE deaths: An animal that died must have presented previous evidence of an EAE score greater than 0.5; EAE onset: the first of a 3-day series scoring a total of≥3.0. A Cumulative EAE score is calculated for each animal. A mean of all animals' cumulative score is then determined for each day. Maximum weight loss: the mean of the lowest weight for each animal in a group. (Note: The Cumulative EAE score and the Maximum weight loss can be influenced by death which eliminates severely diseased animals. The number of days that animals are scored also affects the cumulative score and can only be compared "within-trial"). Mice that die from dosing trauma or with no previous symptoms of EAE are deleted from the study. Experimental groups were assumed to be similar and were compared for statistical significance by a two-tailed t-test (p≤0.05).
The previous study was repeated with three larger groups of sensitized mice treated with (1) vehicle, (2) thiazolidinone at 10 mg/kg, or (3) thiazolidinone at 30 mg/kg.

CC(C)(C)c1cc(/C=C2\SC(N)=NC2=O)cc(C(C)(C)C)c1O [CI-1004, (Z)-5-[[3,5-bis(1,1-dimethylethyl)-4-hydroxyphenyl]methylene]-2-imino-4-thiazolidinone methanesulfonate]
cell-surface expression of ICAM-1 (ICAM-1): blocks
increase in nitric oxide synthase activity on LPS activation ([1]; 10 μM, LPS-activated): prevented the increase in nitric oxide synthase activity
basal NO production ([1]; non-LPS activated cultures): significant decrease in basal NO production
iNOS protein expression (iNOS, BV-2 microglia): decrease in protein expression
Cumulative Score ([2]; 10 mg/kg oral): 31.3 ± 3.6
Deaths ([2]; 10 mg/kg oral): 10/20
EAE Incidence ([2]; 10 mg/kg oral): 19/19
EAE Onset ([2]; 10 mg/kg oral): 11.8 days
EAE Peak Score ([2]; 10 mg/kg oral): 4.5 ± 0.7
Cumulative Score ([2]; 30 mg/kg oral): 28.9 ± 2.7
Deaths ([2]; 30 mg/kg oral): 8/20
EAE Incidence ([2]; 30 mg/kg oral): 20/20
EAE Onset ([2]; 30 mg/kg oral): 12.4 days
EAE Peak Score ([2]; 30 mg/kg oral): 4.3 ± 0.2
daily EAE score or overall EAE responses ([2]; 10 or 30 mg/kg): no effect on the daily EAE score or overall EAE responses
